Laboratory results: patent US9833454B2, “Difluoromethoxy compound with low bioactivation potential for the reduction of beta-amyloid production” (BRISTOL-MYERS SQUIBB COMPANY, priority 2014, dated 2017)
Where “and” joins values, the source holds several entries; their conditions need not be identical. Equal entries are not always repeated. Where two headings read alike, the source gives them in different places.

Experiments:
Aβ42 = test: Determination of Aβ42 IC50; format: cell-based
Method: (§1) Aβ42 IC50 was determined as described by Gillman, J. E. Starrett Jr., M. F. Parker, et al., “Discovery and evaluation of BMS-708163, a potent, and orally bioavailable gamma-secretase inhibitor”, ACS Medicinal Chemistry Letters, vol. 1., pp. 120-124, 2010. Mouse brain Aβ42 was determined as described by J. H. Toyn, X-A. Lin, M. W. Thompson et al., “Viable mouse gene ablations that robustly alter bran Abeta levels are are”, Biomed. Central Neuroscience, vol. 11, pp. 143, […].

Mouse brain Aβ42 = test: Mouse brain Aβ42; format: in vivo; settings: for Mouse Aβ42: mouse brain; for B/P / Compound concentration in the Mouse Aβ42 study: mouse; for Compound concentration in the Mouse Aβ42 study: matrix not given
Method: as §1

CYP2C9 = CYP2C9 (Homo sapiens, UniProt P11712); test: Inhibition of CYP enzymes in human liver microsomes (HLM), CYP2C9; format: in vitro ADME
CYP2D6 [1] = biological target: T1, CYP2D6 (Homo sapiens, UniProt P10635); test: biochemical
CYP3A4 [2] = biological target: T2, CYP3A4 (Homo sapiens, UniProt P08684); test: biochemical
CYP1A2 = biological target: T3, CYP1A2 (Homo sapiens, UniProt P05177); test: Inhibition of CYP enzymes in human liver microsomes (HLM), CYP1A2
T3 sequence (P05177 1-516): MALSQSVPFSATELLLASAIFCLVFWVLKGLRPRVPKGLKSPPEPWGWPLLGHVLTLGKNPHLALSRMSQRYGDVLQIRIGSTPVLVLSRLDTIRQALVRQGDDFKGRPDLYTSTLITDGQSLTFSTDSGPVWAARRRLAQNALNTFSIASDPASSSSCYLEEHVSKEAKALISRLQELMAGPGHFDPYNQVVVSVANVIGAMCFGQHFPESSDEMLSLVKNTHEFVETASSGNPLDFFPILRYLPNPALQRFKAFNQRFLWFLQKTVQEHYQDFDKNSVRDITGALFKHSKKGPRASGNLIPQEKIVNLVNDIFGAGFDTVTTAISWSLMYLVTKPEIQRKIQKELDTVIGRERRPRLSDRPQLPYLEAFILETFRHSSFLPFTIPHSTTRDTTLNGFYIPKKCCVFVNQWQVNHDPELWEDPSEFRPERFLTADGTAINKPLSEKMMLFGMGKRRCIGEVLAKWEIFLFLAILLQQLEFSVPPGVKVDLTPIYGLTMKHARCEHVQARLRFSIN

CYP2D6 [3] = biological target: T1, CYP2D6; test: Inhibition of CYP enzymes in human liver microsomes (HLM), CYP2D6; settings: IC50 shift 0 vs 30 min preincubation (TDI ratio)
CYP3A4 [4] = biological target: T2, CYP3A4; test: Inhibition of CYP enzymes in human liver microsomes (HLM), CYP3A4 (midazolam and testosterone); settings: IC50 shift 0 vs 30 min preincubation (TDI ratio)
[5] = HLM, IC50 shift 0 vs 30 min preincubation (TDI ratio)

T1 sequence (P10635 whole entry): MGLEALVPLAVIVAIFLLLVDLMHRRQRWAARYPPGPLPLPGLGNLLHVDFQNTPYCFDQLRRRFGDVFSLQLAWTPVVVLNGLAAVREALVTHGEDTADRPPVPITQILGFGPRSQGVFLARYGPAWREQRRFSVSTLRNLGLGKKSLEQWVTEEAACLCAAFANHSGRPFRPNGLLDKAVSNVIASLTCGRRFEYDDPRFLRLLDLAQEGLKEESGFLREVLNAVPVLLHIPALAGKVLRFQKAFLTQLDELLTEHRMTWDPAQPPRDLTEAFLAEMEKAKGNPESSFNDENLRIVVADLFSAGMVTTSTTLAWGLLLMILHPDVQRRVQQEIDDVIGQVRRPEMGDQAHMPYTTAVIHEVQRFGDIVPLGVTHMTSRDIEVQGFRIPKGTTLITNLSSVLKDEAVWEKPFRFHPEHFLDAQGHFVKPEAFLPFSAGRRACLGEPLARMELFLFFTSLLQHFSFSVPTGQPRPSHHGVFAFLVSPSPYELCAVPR
T2 sequence (P08684 whole entry): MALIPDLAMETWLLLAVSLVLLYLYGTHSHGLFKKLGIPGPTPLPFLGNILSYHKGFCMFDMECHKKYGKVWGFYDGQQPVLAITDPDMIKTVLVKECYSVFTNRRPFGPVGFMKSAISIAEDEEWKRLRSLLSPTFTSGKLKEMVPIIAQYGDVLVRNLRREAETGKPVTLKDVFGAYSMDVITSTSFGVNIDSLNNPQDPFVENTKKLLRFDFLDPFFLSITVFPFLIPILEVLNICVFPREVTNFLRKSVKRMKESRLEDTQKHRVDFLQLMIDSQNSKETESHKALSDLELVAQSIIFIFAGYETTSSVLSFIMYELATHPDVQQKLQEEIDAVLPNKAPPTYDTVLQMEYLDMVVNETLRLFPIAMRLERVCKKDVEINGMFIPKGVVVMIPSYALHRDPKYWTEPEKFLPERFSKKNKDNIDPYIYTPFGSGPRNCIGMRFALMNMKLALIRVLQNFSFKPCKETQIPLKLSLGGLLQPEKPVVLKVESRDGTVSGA
Chain of CYP2C9 (P11712 whole entry): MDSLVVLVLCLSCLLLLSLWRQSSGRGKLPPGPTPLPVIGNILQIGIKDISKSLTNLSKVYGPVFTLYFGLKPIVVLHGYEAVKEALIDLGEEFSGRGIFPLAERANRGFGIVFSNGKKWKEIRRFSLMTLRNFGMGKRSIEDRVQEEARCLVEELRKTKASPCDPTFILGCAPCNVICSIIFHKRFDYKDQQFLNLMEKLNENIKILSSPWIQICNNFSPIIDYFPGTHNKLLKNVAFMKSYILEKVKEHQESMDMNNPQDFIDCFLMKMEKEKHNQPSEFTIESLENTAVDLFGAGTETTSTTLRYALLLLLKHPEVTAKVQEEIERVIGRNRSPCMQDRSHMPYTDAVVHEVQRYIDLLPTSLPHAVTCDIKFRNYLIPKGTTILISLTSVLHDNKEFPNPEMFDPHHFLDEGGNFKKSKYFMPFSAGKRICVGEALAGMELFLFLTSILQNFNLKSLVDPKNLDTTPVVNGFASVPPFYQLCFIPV

**Q.** How did the IC50 (Aβ42) turn out when CNc1nc(Nc2ccc(-n3cnc(C)n3)c(OC(F)F)c2)nc2c1C(C)(C)CC2c1ccc(F)cc1 (single isomer, unassigned) [Enantiomer 1, N2-(3-(difluoromethoxy)-4-(3-methyl-1H-1,2,4-triazol-1-yl)phenyl)-7-(4-fluorophenyl)-N4,5,5-trimethyl-6,7-dihydro-5H-cyclopenta[d]pyrimidine-2,4-diamine] was run?
**A.** 0.0012 µM

**Q.** And the “Mouse Aβ42” value (Mouse brain Aβ42; 8 mpk)?
**A.** 68%

**Q.** And the “Mouse Aβ42” value (Mouse brain Aβ42; 30 mpk)?
**A.** 29%

**Q.** What about the B/P (Mouse brain Aβ42; 8 mpk) of the same compound?
**A.** 0.7

**Q.** What about the “Compound concentration in the Mouse Aβ42 study” value (Mouse brain Aβ42; 8 mpk) of the same compound?
**A.** 391 nM

**Q.** What about the B/P (Mouse brain Aβ42; 30 mpk) of the same compound?
**A.** 1.4

**Q.** What about the “Compound concentration in the Mouse Aβ42 study” value (Mouse brain Aβ42; 30 mpk) of the same compound?
**A.** 1334 nM

**Q.** What about the IC50 (CYP2C9; HLM, 0 min preincubation, read-out: IC50-0 min 2C9) of the same compound?
**A.** 12.7 µM

**Q.** What about the “IC50 Ratio 2C9” value (CYP2C9; [5]) of the same compound?
**A.** 1.4

**Q.** And the IC50 (CYP2C9; IC50-30 min 2C9, HLM, 30 min preincubation with NADPH)?
**A.** 8.8 µM

**Q.** And the IC50 (CYP2D6 [1])?
**A.** 34.5 µM and 15.6 µM

**Q.** And the IC50 (CYP3A4 [2])?
**A.** ~40 µM and 12 µM and 15.1 µM and 4.5 µM and ~12 µM

**Q.** And the IC50 (CYP1A2)?
**A.** > 40 µM

**Q.** What about the “IC50 Ratio 1A2” value (CYP1A2; [5]) of the same compound?
**A.** 1.0

**Q.** What about the IC50 (CYP1A2; read-out: IC50-30 min 1A2, HLM, 30 min preincubation with NADPH) of the same compound?
**A.** > 40 µM

**Q.** And the “IC50 Ratio 2D6” value (CYP2D6 [3])?
**A.** 2.2

**Q.** What about the “IC50 Ratio 3A4-(MDZ)” value (CYP3A4 [4]; midazolam probe) of the same compound?
**A.** 2.6

**Q.** And the “IC50 Ratio 3A4-(TST)” value (CYP3A4 [4]; testosterone probe)?
**A.** 2.7
